Measurements published in ChEMBL document CHEMBL5321295, “Targeted Degradation of Alpha-Synuclein by Autophagosome-Anchoring Chimera Peptides” (J Med Chem, 2023).
Calls of active or inactive are those of the source. The rule behind the calls is not given here.

Tests used:
[1] = Chemical stability of compound in cell culture medium at 50 uM measured for 24 hrs by HPLC analysis; type: physicochemical
HEK-293T [2] = test: Downregulation of DYNC1I2 expression in HEK293T cells at 100 uM incubated for 24 hrs by proteomic profiling analysis; type: functional, cell-based; settings: Homo sapiens
[3] = target: T1, Microtubule-associated protein 1 light chain 3 beta (Homo sapiens, UniProt Q9GZQ8); test: Induction of LC3B-mediated autophagy flux in HEK293T cells overexpressing alpha-synuclein (unknown origin) assessed as increase in ratio of LC3B-II to LC3B-I levels incubated for 4 hrs by immunoblot analysis; type: cell-based; settings: dose <= 100.0 µM
Mus musculus [4] = test: Downregulation of alpha-synuclein level in substantia nigra pars compacta of MPTP-treated C57BL/6 mouse at 50 mg/kg/day, iv treated for 5 days by immunoblot analysis; type: functional, organism-based; settings: time 5.0 day
[5] = Drug localization in HEK293T cells overexpressing mCherry-fused alpha-synuclein (unknown origin) assessed as colocalization of lysosomes at 50 uM incubated for 2 hrs by MDC staining based confocal laser scanning microscopy; type: ADME, cell-based; settings: human, hek-293t
HEK-293T [6] = test: Downregulation of AKR1B1 expression in HEK293T cells at 100 uM incubated for 24 hrs by proteomic profiling analysis; type: functional, cell-based; settings: Homo sapiens
Mus musculus [7] = test: Neuroprotective activity in MPTP-induced cognitive impairment in C57BL/6 mouse assessed as increase in time spent in target quadrant in probe trial phase at 50 mg/kg/day, iv treated for 5 days measured after 5 to 8 days days by morris water maze test; type: functional, organism-based; settings: time 10-13 day
HEK-293T [8] = test: Downregulation of EIF4H expression in HEK293T cells at 100 uM incubated for 24 hrs by proteomic profiling analysis; type: functional, cell-based; settings: Homo sapiens
HEK-293T [9] = test: Downregulation of MARCKS expression in HEK293T cells at 100 uM incubated for 24 hrs by proteomic profiling analysis; type: functional, cell-based; settings: Homo sapiens
Mus musculus [10] = test: Downregulation of alpha-synuclein level in substantia nigra pars compacta of MPTP-treated C57BL/6 mouse at 50 mg/kg/day, iv treated for 5 days by IHC analysis; type: functional, organism-based; settings: time 5.0 day
HEK-293T [11] = test: Downregulation of EIF2S1 expression in HEK293T cells at 100 uM incubated for 24 hrs by proteomic profiling analysis; type: functional, cell-based; settings: Homo sapiens
Mus musculus [12] = test: Neuroprotective activity in MPTP-induced cognitive impairment in C57BL/6 mouse assessed as increase in platform crossover number in probe trial phase at 50 mg/kg/day, iv treated for 5 days measured after 5 to 8 days days by morris water maze test; type: functional, organism-based; settings: time 10-13 day
Mus musculus [13] = test: Neuroprotective activity in MPTP-induced cognitive impairment in C57BL/6 mouse assessed as decrease in mean speed in navigation trial phase at 50 mg/kg/day, iv treated for 5 days measured after 5 to 8 days days by morris water maze test; type: functional, organism-based; settings: time 10-13 day
HEK-293T [14] = test: Downregulation of MYL12A expression in HEK293T cells at 100 uM incubated for 24 hrs by proteomic profiling analysis; type: functional, cell-based; settings: Homo sapiens
[15] = Toxicity in C57BL/6 mouse assessed as reduction in ALT level at 200 mg/kg/day treated for 5 days; type: organism-based; settings: in vivo, 120 h, time 5 day
[16] = target: T1, Microtubule-associated protein 1 light chain 3 beta; test: Binding affinity to LC3B in HEK293T cells overexpressing alpha-synuclein (unknown origin) at 50 to 100 uM incubated for 4 hrs by co-IP assay; type: cell-based; settings: dose 50-100 µM
Alpha-synuclein [17] = target: T2, Alpha-synuclein (Homo sapiens, UniProt P37840); test: Binding affinity to biotinylated recombinant alpha-synuclein (unknown origin) assessed as dissociation constant by BLI assay
Alpha-synuclein [18] = target: T2, Alpha-synuclein; test: Induction of EGFP-fused alpha-synuclein (unknown origin) degradation overexpressed in HEK293T cells co-expressing mCherry-fused LC3B assessed as puncta formation of alpha-synuclein at 50 uM incubated for 2 hrs by confocal laser scanning microscopy; type: cell-based
HEK-293T [19] = test: Downregulation of ELOB expression in HEK293T cells at 100 uM incubated for 24 hrs by proteomic profiling analysis; type: functional, cell-based; settings: Homo sapiens
Mus musculus [20] = test: Neuroprotective activity in MPTP-induced anxiety-like status in C57BL/6 mouse assessed as increase in zone transition number of mouse track at 50 mg/kg/day, iv treated for 5 days measured after 4 days by open field test; type: functional, organism-based; settings: time 9.0 day
[21] = target: T1, Microtubule-associated protein 1 light chain 3 beta; test: Induction of LC3B-mediated autophagy flux in HEK293T cells overexpressing alpha-synuclein (unknown origin) cotransfected with adenovirus-packaged plasmid encoding mCherry-EGFP-fused LC3B assessed as increase in number of autophagosomes incubated for 4 hrs by confocal laser scanning microscopy; type: cell-based; settings: dose <= 100.0 µM
HEK-293T [22] = test: Downregulation of AGPS expression in HEK293T cells at 100 uM incubated for 24 hrs by proteomic profiling analysis; type: functional, cell-based; settings: Homo sapiens
[23] = target: T1, Microtubule-associated protein 1 light chain 3 beta; test: Induction of LC3B-mediated autophagy flux in HEK293T cells overexpressing alpha-synuclein (unknown origin) assessed as increase in LAMP1 level upto 100 uM incubated for 4 hrs by immunoblot analysis; type: cell-based
HEK-293T [24] = test: Downregulation of SMAP expression in HEK293T cells at 100 uM incubated for 24 hrs by proteomic profiling analysis; type: functional, cell-based; settings: Homo sapiens
Alpha-synuclein [25] = target: T2, Alpha-synuclein; test: Induction of alpha-synuclein (unknown origin) degradation overexpressed in HEK293T cells pretreated with BafA1 at 50 uM incubated for 24 hrs by immunoblot analysis; type: cell-based
[26] = Toxicity in C57BL/6 mouse assessed as change in creatine kinase level at 50 to 200 mg/kg/day treated for 5 days; type: organism-based; settings: in vivo, 120 h, dose 50-200 mg/kg/day, time 5 day
HEK-293T [27] = test: Downregulation of PSMB7 expression in HEK293T cells at 100 uM incubated for 24 hrs by proteomic profiling analysis; type: functional, cell-based; settings: Homo sapiens
Mus musculus [28] = test: Neuroprotective activity in MPTP-treated C57BL/6 mouse assessed as decrease in impaired neurons in substantia nigra pars compacta at 50 mg/kg/day, iv treated for 5 days by FJB staining based microscopy; type: functional, organism-based; settings: time 5.0 day
[29] = Toxicity in C57BL/6 mouse assessed as change in urea level at 50 to 200 mg/kg/day treated for 5 days; type: organism-based; settings: in vivo, 120 h, dose 50-200 mg/kg/day, time 5 day
SH-SY5Y = test: Cytoprotective activity in human SH-SY5Y cells transfected with alpha-synuclein (unknown origin) assessed as increase in mitochondrial membrane potential level at 100 uM measured after 24 hrs by confocal laser scanning microscopy/flow cytometry (reference value: 45.02 +/- 5.04 %); type: functional
[30] = Toxicity in C57BL/6 mouse assessed as change in CKMB level at 50 to 200 mg/kg/day treated for 5 days; type: organism-based; settings: in vivo, 120 h, dose 50-200 mg/kg/day, time 5 day
Mus musculus [31] = test: Neuroprotective activity in MPTP-treated C57BL/6 mouse assessed as increase in dopaminergic neurons of substantia nigra pars compacta at 50 mg/kg/day, iv treated for 5 days by immunofluorescent staining of tyrosine hydroxylase based microscopy; type: functional, organism-based; settings: time 5.0 day
[32] = Toxicity in C57BL/6 mouse assessed as change in cardiac electrophysiology at 50 to 100 mg/kg/day treated for 5 days by ECG analysis; type: organism-based; settings: in vivo, 120 h, dose 50-100 mg/kg/day, time 5 day
HEK-293T [33] = test: Downregulation of MAT1A expression in HEK293T cells at 100 uM incubated for 24 hrs by proteomic profiling analysis; type: functional, cell-based; settings: Homo sapiens
[34] = Toxicity in C57BL/6 mouse assessed as histological change in liver at 50 to 200 mg/kg/day treated for 5 days by H and E staining based analysis; type: organism-based; settings: in vivo, 120 h, dose 50-200 mg/kg/day, time 5 day

With `CC(C)C[C@H](NC(=O)[C@H](Cc1c[nH]cn1)NC(=O)[C@@H](NC(=O)[C@H](Cc1c[nH]c2ccccc12)NC(=O)[C@H](CC(=O)O)NC(=O)[C@H](CC(=O)O)NC(=O)[C@H](CC(=O)O)NC(=O)CNC(=O)CNC(=O)[C@H](CO)NC(=O)[C@H](CO)NC(=O)CNC(=O)[C@H](CO)NC(=O)CNC(=O)[C@H](CCCNC(=N)N)NC(=O)[C@@H](NC(=O)[C@H](CCCCN)NC(=O)[C@H](CO)NC(=O)CNC(=O)[C@@H](NC(=O)[C@H](Cc1ccc(O)cc1)NC(=O)[C@H](CC(C)C)NC(=O)[C@@H](NC(=O)CN)C(C)C)C(C)C)[C@H](C)O)[C@@H](C)O)C(=O)N[C@@H](CO)C(=O)N[C@@H](CO)C(=O)N[C@@H](Cc1ccc(O)cc1)C(=O)NCC(=O)N[C@@H](CCCNC(=N)N)C(=O)N[C@@H](CCCCN)C(=O)N[C@@H](CCCCN)C(=O)N[C@@H](CCCNC(=N)N)C(=O)N[C@@H](CCCNC(=N)N)C(=O)N[C@@H](CCC(N)=O)C(=O)N[C@@H](CCCNC(=N)N)C(=O)N[C@@H](CCCNC(=N)N)C(=O)N[C@@H](CCCNC(=N)N)C(=O)O` the Stability [1] was “Stable”, the Activity (HEK-293T [2]) was “Active” and the Activity [3] was “Dose-Dependent Effect”. For the same compound, the Activity (Mus musculus [4]) was “Active”, the Drug uptake [5] was “Active” and the Activity (HEK-293T [6]) was “Active”. The Activity (Mus musculus [7]) was “Active”, the Activity (HEK-293T [8]) was “Active” and the Activity (HEK-293T [9]) was “Active”. For the same compound, the Activity (Mus musculus [10]) was “Active”, the Activity (HEK-293T [11]) was “Active” and the Activity (Mus musculus [12]) was “Active”. For the same compound, the Activity (Mus musculus [13]) was “Active”, the Activity (HEK-293T [14]) was “Active” and the Activity [15] was “Toxic”. For the same compound, the Activity [16] was “Active”, the Kd (Alpha-synuclein [17]) was 8.83 µM and the Activity (Alpha-synuclein [18]) was “Active”. For the same compound, the Activity (HEK-293T [19]) was “Active”, the Activity (Mus musculus [20]) was “Active” and the Activity [21] was “Dose-Dependent Effect”. For the same compound, the Activity (HEK-293T [22]) was “Active”, the Activity [23] was “Active” and the Activity (HEK-293T [24]) was “Active”. For the same compound, the Activity (Alpha-synuclein [25]) was “inactive”, the Activity [26] was “Non-Toxic” and the Activity (HEK-293T [27]) was “Active”. For the same compound, the Activity (Mus musculus [28]) was “Active”, the Activity [29] was “Non-Toxic” and the Activity (SH-SY5Y) was 61.65%. The Activity [30] was “Non-Toxic”, the Activity (Mus musculus [31]) was “Active” and the Activity [32] was “Non-Toxic”. For the same compound, the Activity (HEK-293T [33]) was “Active” and the Activity [34] was “Non-Toxic”.
